Source: patent publication US10421761B2, “Compounds for kinase modulation, and indications therefor” (Plexxikon Inc., priority 2013, dated 2019)

Test system: B9 cells
Conditions: Repl. 2; B9 cells

CCCS(=O)(=O)Nc1ccc(F)c(C(=O)c2c[nH]c3ncc(-c4ccc(Cl)cc4)cc23)c1F [vemurafenib]
probe 1430623_s_at response, Obfc2a (oligonucleotide/oligosaccharide-binding fold containing 2A): 1.88 | probe 1430700_a_at response, Pla2g7 (phospholipase A2, group VII (platelet-activating factor acetylhydrolase, plasma)): 2.18 | probe 1431416_a_at response, Jam2 (junction adhesion molecule 2): 1.93 | probe 1431422_a_at response, Dusp14 (dual specificity phosphatase 14): 1.93 | probe 1431611_a_at response, Cadm1 (cell adhesion molecule 1): 2.31 | probe 1431688_at response, LOC73899 (hypothetical LOC73899): 2.41 | probe 1431691_a_at response, Rab31 (RAB31, member RAS oncogene family): 2.04 | probe 1433909_at response, Syt17 (synaptotagmin XVII): 2.17 | probe 1434059_at response, B230312A22Rik (RIKEN cDNA B230312A22 gene): 2.10 | probe 1434092_at response, Atg9b (ATG9 autophagy related 9 homolog B (S. cerevisiae)): 1.89 | probe 1434109_at response, Sh3bgrl2 (SH3 domain binding glutamic acid-rich protein like 2): 2.33 | probe 1434252_at response, Tmcc3 (transmembrane and coiled coil domains 3): 1.95 | probe 1434601_at response, Amigo2 (adhesion molecule with Ig like domain 2): 1.89 | probe 1434957_at response, Cdon (cell adhesion molecule-related/down-regulated by oncogenes): 0.46 | probe 1435066_at response, Pitpnc1 (phosphatidylinositol transfer protein, cytoplasmic 1): 2.32 | probe 1435176_a_at response, Id2 (inhibitor of DNA binding 2): 0.46 | probe 1435330_at response, Pyhin1 (pyrin and HIN domain family, member 1): 2.38 | probe 1435331_at response, Pyhin1 (pyrin and HIN domain family, member 1): 3.71 | probe 1435460_at response, Prkg2 (protein kinase, cGMP-dependent, type II): 1.96 | probe 1435695_a_at response, Ggct (gamma-glutamyl cyclotransferase): 2.19 | probe 1436100_at response, Sh2d5 (SH2 domain containing 5): 2.35 | probe 1436329_at response, Egr3 (early growth response 3): 2.77 | probe 1436584_at response, Spry2 (sprouty homolog 2 (Drosophila)): 3.54 | probe 1436659_at response, Dclk1 (doublecortin-like kinase 1): 2.37 | probe 1436917_s_at response, Gpsm1 (G-protein signalling modulator 1 (AGS3-like, C. elegans)): 1.89 | probe 1436944_x_at response, Pisd /// Pisd-ps1 ///Pisd-ps3 (phosphatidylserine decarboxylase /// phosphatidylserine decarboxylase, pseudogene 1 /// phosphatidylserine decarboxylase, pseudogene 3): 0.48 | probe 1437092_at response, Clip4 (CAP-GLY domain containing linker protein family, member 4): 2.13 | probe 1437100_x_at response, Pim3 (proviral integration site 3): 2.05 | probe 1437199_at response: 4.31 | probe 1437271_at response, Clcf1 (cardiotrophin-like cytokine factor 1): 1.96 | probe 1437486_at response, Gprc5a (G protein-coupled receptor, family C, group 5, member A): 2.08 | probe 1437982_x_at response, Cox15 (COX15 homolog, cytochrome c oxidase assembly protein (yeast)): 0.45 | probe 1438038_at response, 4930402H24Rik (RIKEN cDNA 4930402H24 gene): 1.93 | probe 1438664_at response, Prkar2b (protein kinase, cAMP dependent regulatory, type II beta): 0.49 | probe 1438699_at response, Srd5a1 (steroid 5 alpha-reductase 1): 1.87 | probe 1439016_x_at response, Sprr2a (small proline-rich protein 2A): 0.42 | probe 1439109_at response, Ccdc68 (coiled-coil domain containing 68): 0.50 | probe 1439434_x_at response, Sh2d5 (SH2 domain containing 5): 1.91 | probe 1439797_at response, Ppard (peroxisome proliferator activator receptor delta): 2.32 | probe 1439878_at response, Ivl (involucrin): 2.90 | probe 1440169_x_at response, Ifnar2 (interferon (alpha and beta) receptor 2): 0.53 | probe 1440559_at response, Hmga2-ps1 (high mobility group AT-hook 2, pseudogene 1): 2.95 | probe 1441315_s_at response, Slc19a2 (solute carrier family 19 (thiamine transporter), member 2): 2.18 | probe 1441917_s_at response, Tmem40 (transmembrane protein 40): 2.11 | probe 1442350_at response: 2.13 | probe 1442363_at response, 1110012J17Rik (RIKEN cDNA 1110012J17 gene): 1.96 | probe 1443536_at response, Slc7a11 (solute carrier family 7 (cationic amino acid transporter, y+ system), member 11): 0.40 | probe 1445758_at response: 0.52 | probe 1446791_at response, Pi15 (peptidase inhibitor 15): 0.48 | probe 1447661_at response: 0.43 | probe 1447845_s_at response, Vnn1 (vanin 1): 0.46 | probe 1448364_at response, Ccng2 (cyclin G2): 2.01 | probe 1448532_at response, Prl8a9 (prolactin family8, subfamily a, member 9): 2.67 | probe 1448562_at response, Upp1 (uridine phosphorylase 1): 2.99 | probe 1448613_at response, Ecm1 (extracellular matrix protein 1): 1.89 | probe 1448617_at response, Cd53 (CD53 antigen): 1.99 | probe 1448810_at response, Gne (glucosamine): 2.16 | probe 1448855_at response, Rassf1 (Ras association (RalGDS/AF-6) domain family member 1): 2.05 | probe 1448894_at response, Akr1b8 (aldo-keto reductase family 1, member B8): 1.99 | probe 1448978_at response, Ngef (neuronal guanine nucleotide exchange factor): 3.24 | probe 1449038_at response, Hsd11b1 (hydroxysteroid 11-beta dehydrogenase 1): 2.51 | probe 1449125_at response, Tnfaip8l1 (tumor necrosis factor, alpha-induced protein 8-like 1): 2.10 | probe 1449133_at response, Sprr1a (small proline-rich protein 1A): 2.78 | probe 1449268_at response, Gfpt1 (glutamine fructose-6-phosphate transaminase 1): 2.36 | probe 1449297_at response, Casp12 (caspase 12): 0.47 | probe 1449334_at response, Timp3 (tissue inhibitor of metalloproteinase 3): 0.42 | probe 1449367_at response, Trex2 (three prime repair exonuclease 2): 4.68 | probe 1449408_at response, Jam2 (junction adhesion molecule 2): 2.08 | probe 1449545_at response, Fgf18 (fibroblast growth factor 18): 3.38 | probe 1449965_at response, Mcpt8 (mast cell protease 8): 2.61 | probe 1450241_a_at response, Evi2a (ecotropic viral integration site 2a): 4.27 | probe 1450262_at response, Clcf1 (cardiotrophin-like cytokine factor 1): 2.12 | probe 1450276_a_at response, Scin (scinderin): 2.63 | probe 1450376_at response, Mxi1 (Max interacting protein 1): 2.00 | probe 1450430_at response, Mrc1 (mannose receptor, C type 1): 2.97 | probe 1450501_at response, Itga2 (integrin alpha 2): 2.48 | probe 1450791_at response, Nppb (natriuretic peptide precursor type B): 4.39 | probe 1450976_at response, Ndrg1 (N-myc downstream regulated gene 1): 2.47 | probe 1451006_at response, Xdh (xanthine dehydrogenase): 0.39 | probe 1451308_at response, Elovl4 (elongation of very long chain fatty acids (FEN1/Elo2, SUR4/Elo3, yeast)-like 4): 2.21 | probe 1451446_at response, Antxr1 (anthrax toxin receptor 1): 0.43 | probe 1451501_a_at response, Ghr (growth hormone receptor): 2.25 | probe 1451529_at response, Sgtb (small glutamine-rich tetratricopeptide repeat (TPR)-containing, beta): 2.47 | probe 1451798_at response, Il1rn (interleukin 1 receptor antagonist): 2.76 | probe 1452058_a_at response, Rnfl1 (ring finger protein 11): 2.02 | probe 1452087_at response, Epsti1 (epithelial stromal interaction 1 (breast)): 2.32 | probe 1452203_at response, Obfc2a (oligonucleotide/oligosaccharide-binding fold containing 2A): 1.90 | probe 1452352_at response, Ctla2b (cytotoxic T lymphocyte-associated protein 2 beta): 2.30 | probe 1452521_a_at response, Plaur (plasminogen activator, urokinase receptor): 2.09 | probe 1453055_at response, Sema6d (sema domain, transmembrane domain (TM), and cytoplasmic domain, (semaphorin) 6D): 4.08 | probe 1453278_a_at response, Clip4 (CAP-GLY domain containing linker protein family, member 4): 1.99 | probe 1453345_at response, Nipal1 (NIPA-like domain containing 1): 3.92 | probe 1454048_a_at response, 4931408A02Rik /// LOC630876 (RIKEN cDNA 4931408A02 gene /// similar to Protein C21orf63 homolog precursor): 0.46 | probe 1454254_s_at response, 1600029D21Rik (RIKEN cDNA 1600029D21 gene): 2.18 | probe 1454649_at response, Srd5a1 (steroid 5 alpha-reductase 1): 2.08 | probe 1454699_at response, LOC100047324 /// Sesn1 (similar to Sesn1 protein /// sestrin 1): 0.37 | probe 1454710_at response, Spink2 (serine peptidase inhibitor, Kazal type 2): 2.03 | probe 1454780_at response, Galntl4 (UDP-N-acetyl-alpha-D-galactosamine:polypeptide N-acetylgalactosaminyltransferase-like 4): 0.44 | probe 1454877_at response, Sertad4 (SERTA domain containing 4): 0.42 | probe 1455104_at response, Mxd1 (MAX dimerization protein 1): 2.85 | probe 1455241_at response, BC037703 (cDNA sequence BC037703): 0.50 | probe 1455299_at response, Vgll3 (vestigial like 3 (Drosophila)): 0.44 | probe 1455981_at response, Gm11263 /// Gm12242 /// Gm13654 /// Gm14138 /// Gm16406 /// Gm4796 /// Gm6476 /// Gm9143 /// LOC100043734 /// LOC236932 /// LOC623245 /// LOC639593 /// Rps6: 0.46 | probe 1456150_at response, Jhdm1d (jumonji C domain-containing histone demethylase 1 homolog D (S. cerevisiae)): 1.99 | probe 1456174_x_at response, Ndrg1 (N-myc downstream regulated gene 1): 2.00 | probe 1456248_at response, Lce3f /// LOC630971 (late cornified envelope 3F /// hypothetical protein LOC630971): 2.45 | probe 1456284_at response, Tmem171 (transmembrane protein 171): 1.95 | probe 1456321_at response, Nipal1 (NIPA-like domain containing 1): 2.99 | probe 1456725_x_at response, Ezr (ezrin): 0.49 | probe 1456874_at response, Flrt2 (fibronectin leucine rich transmembrane protein 2): 0.54 | probe 1457042_at response, AI256396 (EST AI256396): 0.52 | probe 1457568_at response, Hnrnpd (heterogeneous nuclear ribonucleoprotein D): 0.50 | probe 1457666_s_at response, Ifi202b (interferon activated gene 202B): 3.89 | probe 1460220_a_at response, Csf1 (colony stimulating factor 1 (macrophage)): 0.38 | probe 1460302_at response, Thbs1 (thrombospondin 1): 0.50 | probe 1460472_at response, Cdk3 (cyclin-dependent kinase 3): 1.99 | probe 1460521_a_at response, Obfc2a (oligonucleotide/oligosaccharide-binding fold containing 2A): 2.32 | probe 1460695_a_at response, 2010111I01Rik (RIKEN cDNA 2010111I01 gene): 0.48
